Holding throughout (assay type): cell-based
Experiment [1] has as its system C. parapsilosis ATCC 22019. The experiment can be described thus: Anti-Fungal (Candida) Activity Assay, broth microtiter MIC. The following applies: Lodderomyces parapsilosis, ATCC22019, 48 h, Table 3b (additional results); 3 replicates; MIC read at 48 h. A digest of the protocol:
(§1)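 Broth microdilution per CLSI M27-A3 in RPMI 1640 + MOPS, at a final inoculum of 2.5×10^3 CFU/mL. Compound DMSO stocks were diluted in water to a 128 μg/mL working solution. MIC was read visually against the growth control at 48 h.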

A further experiment deals with C. albicans ATCC 90028. The experiment is described as above. Particulars: ATCC90028, 48 h, Table 3b (additional results), 3 replicates, MIC read at 48 h. The procedure, abridged: as §1
For a further experiment, the system named is Septoria tritici (St). The experiment can be described thus: Growth inhibition assay of fungal pathogens. Particulars: Zymoseptoria tritici, 48 h, Table 4b, read-out: Concentration at 90% Inhibition St. The procedure, abridged:
(§2)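 Inoculum density for each fungus is set from 48 h growth curves, and spores are suspended in 17% V8 liquid medium. Compounds are added to final 50, 10, 2 ppm or 2, 0.4, 0.08 ppm. Plates are read by OD600 at 24 and 48 h; inhibition is scored at 48 h versus 2% DMSO.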

In another experiment the test system is Diplodia maydis (Dm). The experiment can be described thus: Growth inhibition assay of fungal pathogens. Particulars: Stenocarpella maydis, 48 h, Table 4b, read-out: Concentration at 90% Inhibition Dm. A digest of the protocol:
as §2

Experiment [2] deals with Fusarium virguliforme (Fv). The experiment can be described thus: Growth inhibition assay of fungal pathogens. The following applies: 48 h, Table 4b, read-out: Concentration at 90% Inhibition Fv. A digest of the protocol: as §2
Experiment [3] has as its system Fusarium moniliforme (Fm). The experiment can be described thus: Growth inhibition assay of fungal pathogens. Particulars: Fusarium verticillioides, 48 h, Table 4b, read-out: Concentration at 90% Inhibition Fm. The procedure, abridged:
as §2

Experiment [4] concerns Collectotrichum graminicola (Cg). The experiment can be described thus: Growth inhibition assay of fungal pathogens. Particulars: 48 h, Table 4b, read-out: Concentration at 90% Inhibition Cg. A digest of the protocol:
as §2

Another experiment concerns Rhizoctonia solani (Rs). The experiment can be described thus: Growth inhibition assay of fungal pathogens. Particulars: 48 h, Table 4b, read-out: Concentration at 90% Inhibition Rs. The procedure, abridged:
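Spores, or mycelial plugs for Rhizoctonia, in 17% V8 medium (¼ PDB for plugs) were exposed to compound at final 50, 10 and 2 ppm or 2, 0.4 and 0.08 ppm, with 2% DMSO. Growth was read by OD600 with blank subtraction plus visual rating; percent inhibition at 48 h is relative to 2% DMSO control.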

The next experiment concerns Botrtyis cinerea (Bc). The experiment can be described thus: Growth inhibition assay of fungal pathogens. The following applies: 48 h, Table 4b, read-out: Concentration at 90% Inhibition Bc. A digest of the protocol: as §2
Experiment [5] deals with Phytophthora capsici (Pc). The experiment can be described thus: Growth inhibition assay of fungal pathogens. Particulars: 48 h, Table 4b, read-out: Concentration at 90% Inhibition Pc. A digest of the protocol: as §2

The results in this text go back to patent US11098055B2, “Ester ACC inhibitors and uses thereof” (Gilead Apollo, LLC, priority 2015, dated 2021).

In brackets after ≈: the same amount, converted by molar mass.

For `CCOC(=O)c1sc2c(c1C)c(=O)n(C(C)(C)C(=O)NC(C)C)c(=O)n2C[C@H](OCC(C)(C)C#N)c1cc(F)ccc1OC` [Compound I-37, ethyl (R)-1-(2-(2-cyano-2-methylpropoxy)-2-(5-fluoro-2-methoxyphenyl)ethyl)-3-(1-(isopropylamino)-2-methyl-1-oxopropan-2-yl)-5-methyl-2,4-dioxo-1,2,3,4-tetrahydrothieno[2,3-d]pyrimidine-6-carboxylate], the values for the MIC (in experiment [1]; in the experiment with C. albicans ATCC 90028) were 2.1 to 4 µg/mL (≈ 3.33 to 6.34 µM) and 0.25 to 1 µg/mL (≈ 0.396 to 1.59 µM), respectively. The IC90 in the experiment on Septoria tritici (St) was at least 50 µg/mL; in the experiment with Diplodia maydis (Dm), 0.4 µg/mL (≈ 0.634 µM); in [2], 0.4 µg/mL (≈ 0.634 µM); in experiment [3], 0.08 µg/mL (≈ 0.127 µM); in experiment [4] it was 0.4 µg/mL (≈ 0.634 µM); with Rhizoctonia solani (Rs) it was 2 µg/mL (≈ 3.17 µM). Also, the figures for the IC90 (in the experiment with Botrtyis cinerea (Bc); in experiment [5]) were 0.4 µg/mL (≈ 0.634 µM) and at least 50 µg/mL, respectively.
Regarding `CCOC(=O)c1sc2c(c1C)c(=O)n(C(C)(C)C(=O)NC(C)C)c(=O)n2C[C@H](OCC(C)(C)C#N)c1ccccc1OC` [Compound I-38, ethyl (R)-1-(2-(2-cyano-2-methylpropoxy)-2-(2-methoxyphenyl)ethyl)-3-(1-(isopropylamino)-2-methyl-1-oxopropan-2-yl)-5-methyl-2,4-dioxo-1,2,3,4-tetrahydrothieno[2,3-d]pyrimidine-6-carboxylate], the figures for the minimal inhibitory concentration (MIC) (in [1]; with C. albicans ATCC 90028) were 2.1 to 4 µg/mL (≈ 3.43 to 6.53 µM) and 0.25 to 1 µg/mL (≈ 0.408 to 1.63 µM), respectively. Besides, the IC90 with Septoria tritici (St) is at least 50 µg/mL; in the experiment with Diplodia maydis (Dm), 2 µg/mL (≈ 3.26 µM); in experiment [2], 2 µg/mL (≈ 3.26 µM); in experiment [3] it was 0.08 µg/mL (≈ 0.131 µM); in experiment [4], 2 µg/mL (≈ 3.26 µM); with Rhizoctonia solani (Rs), 2 µg/mL (≈ 3.26 µM). Moreover, the IC90 with Botrtyis cinerea (Bc) is 0.4 µg/mL (≈ 0.653 µM); in experiment [5], at least 50 µg/mL.
For `CCNC(=O)C(C)(C)n1c(=O)c2c(C)c(C(=O)OCC)sc2n(C[C@H](O)c2cc(F)ccc2OC)c1=O` [Compound I-39, ethyl (R)-3-(1-(ethylamino)-2-methyl-1-oxopropan-2-yl)-1-(2-(5-fluoro-2-methoxyphenyl)-2-hydroxyethyl)-5-methyl-2,4-dioxo-1,2,3,4-tetrahydrothieno[2,3-d]pyrimidine-6-carboxylate], the MIC (in experiment [1]; in the experiment on C. albicans ATCC 90028) was 2.1 to 4 µg/mL (≈ 3.92 to 7.47 µM) in each case. For the same compound, the IC90 in the experiment with Septoria tritici (St) is at least 50 µg/mL; in the experiment with Diplodia maydis (Dm) it was at least 50 µg/mL; in [2], 2 µg/mL (≈ 3.73 µM); in experiment [3], 2 µg/mL (≈ 3.73 µM); in [4], at least 50 µg/mL; in the experiment with Rhizoctonia solani (Rs) it was 0.08 µg/mL (≈ 0.149 µM). Besides, the results for the IC90 (with Botrtyis cinerea (Bc); in experiment [5]) were 10 µg/mL (≈ 18.7 µM) and at least 50 µg/mL, respectively.
In the case of `CCOC(=O)c1sc2c(c1C)c(=O)n(C(C)(C)C(=O)NC(C)C)c(=O)n2CCc1cc(F)ccc1OC` [Compound I-40, ethyl 1-(5-fluoro-2-methoxyphenethyl)-3-(1-(isopropylamino)-2-methyl-1-oxopropan-2-yl)-5-methyl-2,4-dioxo-1,2,3,4-tetrahydrothieno[2,3-d]pyrimidine-6-carboxylate], the figures for the MIC (in experiment [1]; with C. albicans ATCC 90028) were 0.25 to 1 µg/mL (≈ 0.468 to 1.87 µM) and 2.1 to 4 µg/mL (≈ 3.94 to 7.5 µM), respectively. The IC90 with Septoria tritici (St) was at least 50 µg/mL; with Diplodia maydis (Dm), 10 µg/mL (≈ 18.7 µM); in experiment [2] it was 2 µg/mL (≈ 3.75 µM); in experiment [3] it was 2 µg/mL (≈ 3.75 µM); in experiment [4], 10 µg/mL (≈ 18.7 µM); with Rhizoctonia solani (Rs), at least 50 µg/mL. The IC90 in the experiment on Botrtyis cinerea (Bc) is 2 µg/mL (≈ 3.75 µM); in [5] it was at least 50 µg/mL.
Consider `CCNC(=O)[C@@H](C)n1c(=O)c2c(C)c(C(=O)OCC)sc2n(C[C@H](OCCC#N)c2cc(F)ccc2OC)c1=O` [Compound I-41, ethyl 1-((R)-2-(2-cyanoethoxy)-2-(5-fluoro-2-methoxy-phenyl)ethyl)-3-((R)-1-(ethylamino)-1-oxopropan-2-yl)-5-methyl-2,4-dioxo-1,2,3,4-tetrahydrothieno[2,3-d]pyrimidine-6-carboxylate], for which the MIC (in experiment [1]; against C. albicans ATCC 90028) was 2.1 to 4 µg/mL (≈ 3.65 to 6.96 µM) throughout. Also, the IC90 in the experiment on Septoria tritici (St) was at least 50 µg/mL; in the experiment on Diplodia maydis (Dm), at least 50 µg/mL; in experiment [2], at least 50 µg/mL; in experiment [3] it was 2 µg/mL (≈ 3.48 µM); in [4], 10 µg/mL (≈ 17.4 µM); in the experiment with Rhizoctonia solani (Rs), at least 50 µg/mL. Moreover, the IC90 in the experiment on Botrtyis cinerea (Bc) is 10 µg/mL (≈ 17.4 µM); in experiment [5], at least 50 µg/mL.
Consider `CCNC(=O)[C@H](C)n1c(=O)c2c(C)c(C(=O)OCC)sc2n(C[C@H](OCCC#N)c2cc(F)ccc2OC)c1=O` [Compound I-42, ethyl 1-((R)-2-(2-cyanoethoxy)-2-(5-fluoro-2-methoxyphenyl)ethyl)-3-((S)-1-(ethylamino)-1-oxopropan-2-yl)-5-methyl-2,4-dioxo-1,2,3,4-tetrahydrothieno[2,3-d]pyrimidine-6-carboxylate], for which the MIC (in experiment [1]; in the experiment on C. albicans ATCC 90028) was 2.1 to 4 µg/mL (≈ 3.65 to 6.96 µM) throughout. Moreover, the IC90 is at least 50 µg/mL with Septoria tritici (St); 2 µg/mL (≈ 3.48 µM) with Diplodia maydis (Dm); 0.4 µg/mL (≈ 0.696 µM) in experiment [2]; 0.08 µg/mL (≈ 0.139 µM) in experiment [3]; 2 µg/mL (≈ 3.48 µM) in [4]; 2 µg/mL (≈ 3.48 µM) in the experiment on Rhizoctonia solani (Rs). Besides, the IC90 with Botrtyis cinerea (Bc) is 0.4 µg/mL (≈ 0.696 µM); in [5], at least 50 µg/mL.
Regarding `CCOC(=O)c1sc2c(c1C)c(=O)n([C@H](C)C(=O)NC(C)C)c(=O)n2C[C@H](O)c1cc(F)ccc1OC` [Compound I-43, ethyl 1-((R)-2-(5-fluoro-2-methoxyphenyl)-2-hydroxyethyl)-3-((R)-1-(isopropylamino)-1-oxopropan-2-yl)-5-methyl-2,4-dioxo-1,2,3,4-tetrahydrothieno[2,3-d]pyrimidine-6-carboxylate], the MIC (in [1]; in the experiment with C. albicans ATCC 90028) was 2.1 to 4 µg/mL (≈ 3.92 to 7.47 µM) in each case. Further, the IC90 in the experiment with Septoria tritici (St) is at least 50 µg/mL; in the experiment with Diplodia maydis (Dm), 10 µg/mL (≈ 18.7 µM); in [2], 0.4 µg/mL (≈ 0.747 µM); in [3] it was 0.08 µg/mL (≈ 0.149 µM); in experiment [4], 10 µg/mL (≈ 18.7 µM); with Rhizoctonia solani (Rs), 2 µg/mL (≈ 3.73 µM). Besides, the IC90 in the experiment with Botrtyis cinerea (Bc) is 2 µg/mL (≈ 3.73 µM); in [5], at least 50 µg/mL.
As for `CCOC(=O)c1sc2c(c1C)c(=O)n([C@@H](C)C(=O)NC(C)C)c(=O)n2C[C@H](O)c1cc(F)ccc1OC` [Compound I-44, ethyl 1-((R)-2-(5-fluoro-2-methoxyphenyl)-2-hydroxyethyl)-3-((S)-1-(isopropylamino)-1-oxopropan-2-yl)-5-methyl-2,4-dioxo-1,2,3,4-tetrahydrothieno[2,3-d]pyrimidine-6-carboxylate], the MIC (in experiment [1]; in the experiment with C. albicans ATCC 90028) was 2.1 to 4 µg/mL (≈ 3.92 to 7.47 µM) each time. For the same compound, the IC90 in the experiment with Septoria tritici (St) was at least 50 µg/mL; in the experiment on Diplodia maydis (Dm) it was at least 50 µg/mL; in [2], 10 µg/mL (≈ 18.7 µM); in [3], at least 50 µg/mL; in [4], at least 50 µg/mL; in the experiment on Rhizoctonia solani (Rs) it was at least 50 µg/mL. Moreover, the IC90 was 10 µg/mL (≈ 18.7 µM) in the experiment with Botrtyis cinerea (Bc) and at least 50 µg/mL in experiment [5].

For orientation: MIC means the lowest concentration found to suppress growth. Read a high MIC as a need for much substance.
